Experiment [1] concerns FeCl3-induced arterial thrombosis (carotid artery). In words: FeCl3-induced arterial model of thrombosis in rats (time to occlusion). In kind it is in vivo. The conditions noted are these: rat, single bolus 0.2 mg/kg plus maintenance infusion 0.00433 mg/kg/min. As for the experimental part:
(§1) Male Sprague-Dawley rats (250-310 g; Charles River Laboratories, St-Constant, QC, Canada) were acclimated for at least 3 days prior to the start of the study. Animals were housed in microisolator cages and were kept on a 12-hr light/dark cycle with constant temperature and humidity. Food and water were provided ad libitum. Various anti-thrombotic agents and peptides of this invention were dissolved in saline (0.9% sodium chloride) prior to use.
The FeCl3-induced arterial model of thrombosis in rats was also generated as described by Wang and Xu (Wang 2005) with some modifications (Couture 2011). Briefly, rats were anesthetized with a 2.5% isoflurane/oxygen mixture and placed on a heat source (35-37° C.). An incision was made over the right carotid artery, and a segment of the artery was exposed via blunt dissection. A Doppler flow probe (Model MA1PRB, Transonic System Inc., Ithaca, N.Y., USA) connected to a perivascular flow module (TS420, Transonic System Inc., Ithaca, N.Y., USA) was then attached to the carotid artery to monitor blood flow. Data were collected and analyzed using the MP100 Biopac™ Systems (Biopac Systems, Santa Barbara, Calif., USA), and the AcgKnowledge™ software (Biopac Systems, Santa Barbara, Calif., USA), respectively. Baseline blood flow was recorded for a minimum of 15 minutes until readings stabilized. Aquasonic 100 gel (Parker Laboratories, Inc., Fairfield, N.J., USA) was added to help conductivity and any fluid accumulating at the site of surgery was removed during data sampling without touching the probe. […] One minute after drug administration, a piece of filter paper (Gel Blot Paper, GB003, Whatman, Piscataway, N.J., USA; 7 mm diameter) saturated with 20% FeCl3 (EMD Chemicals Inc., Gibbstown, N.J., USA) was placed on the exposed surface of the carotid artery and incubated for 3.5 minutes. During the application of FeCl3, the neck region was covered with aluminum foil. At the end of the incubation period, the filter paper was removed and the exposed carotid was covered with a saline-soaked gauze. Time to occlusion was defined as the time from the application of FeCl3 until blood flow decreased to zero. […] Preparing and processing each animal took approximately 1 hr and 7 animals were treated each day. Control animals were always included when the other treatments were being administered. For this reason, the number of animals in the control group is higher than that of the treated-groups.
(§2) Statistical analysis was conducted using GraphPad™ Prism (GraphPad Software Inc., San Diego Calif., USA). Data were analyzed using one-way ANOVA with post-hoc Bonferroni correction for multiple comparisons. The relationship between thrombus weight and thrombus volume was determined by linear regression. […]

For experiment [2], the target named is T1, thrombin (Homo sapiens, UniProt P00734). In words: Cleavage of thrombin-sensitive peptides catalyzed by thrombin, followed by HPLC. It is filed as biochemical. Further details: rapidly converts prothrombin into the ultimate protease thrombin. The conditions noted are these: 75 μM peptide, 23 nM thrombin, pH 7.6, 37° C.
Experiment [3] deals with fresh blood withdrawn from rats with venous thrombosis. In words: Clotting time (aPTT) of fresh blood withdrawn from treated rats. It is filed as in vivo. The note with it: rat, 0.2 mg/kg bolus + 0.00433 mg/kg/min infusion; 20 minutes after administration versus before. On the procedure: FIG. 23 illustrates the clotting times (aPTT) determined for fresh blood withdrawn from rats with venous thrombosis at three time points, the first before drug administration and vessel injury, the second at 20 minutes after FeCl3 application and the third 60 minutes following injection of the respective thrombin inhibitors. Clotting times (aPTT) are shown for different rats administered with each thrombin inhibitor, ZIP4 for MH2-wZIP4, ZIP5 for MH2-wZIP5 and T218 for BRI-T218. Dosage levels for every compound were 0.2 mg/kg for the single-bolus injection and 0.00433 mg/kg/min for the maintenance infusion,
Terminal blood samples were analyzed for aPTT within 15 to 30 minutes of collection using a Coag DX Analyzer with aPTT citrate cartridges (IDEXX Laboratories, Westbrook, Me., USA).

For another experiment, the target named is T2, Human α-thrombin (Homo sapiens, UniProt P00734).
T2 construct: Human α-thrombin was purchased from Haemotologic Technologies, Inc., VT, USA; purchased Haemotologic Technologies, Inc., VT, USA
The experiment can be described thus: Inhibition of thrombin-catalyzed hydrolysis of chromogenic substrate S-2366 (inhibition constant Ki). In kind it is biochemical. The conditions noted are these: Ki, T = 37° C.; enzyme kinetics, chromogenic substrate.

Experiment [4] deals with T1, thrombin. In words: Fibrinogen clotting assay (concentration needed to double the clotting time = IC50). It is filed as biochemical. The conditions noted are these: IC50 (anti-clotting), T = 37° C. On the procedure:
The same enzyme kinetic assays were used to determine the inhibitory activities of MH2 and two MH2-derived peptides, MH2-allGS and MH2-GS (Table 4). Clotting assays were carried out to determine the inhibitory activities of the rest of the MH2 peptides by use of the protocols described previously (DiMaio 1990; Taka 2000; Su 2004). The assay employs bovine plasma fibrinogen dissolved at 0.1% in 50 mM Tris-Cl, 100 mM NaCl, 0.1% PEG-8000 at pH 7.6 (i.e. the clotting buffer). In addition to the use of optical densities or ODs (Gill 1989), concentrations of the peptide stock solutions were ranked (and corrected when necessary) by use of quantitative proton NMR spectroscopy (Cavaluzzi 2002). Each assay mixture contained a certain concentration of the peptide, and the reaction was started by the addition of human thrombin to a final concentration of approximately 0.5 nM. Optical absorbance of the assay mixtures was measured at 420 nm using the Spectramax™ plate reader. The onset clotting time was determined as an intersection of the baseline and the tangent line at point of inflection of the clotting curve. The concentration of an MH2 peptide needed to double the clotting time was defined as IC50 (DiMaio 1990) as illustrated in FIG. 4 and summarized in Table 4. The correlation between IC50 values and linker unfolding is similar to that for the BTI series of inhibitors (Table 3). […] (Table 3).

Experiment [5] has as its system pooled human plasma. In words: Prothrombin time (PT, thromboplastin) clotting assay. In kind it is biochemical. As for the experimental part: (§3) Prothrombin (clotting) time (PT) or activated partial thromboplastin (clotting) time (APTT) assays were carried out at certain concentrations of the thrombin inhibitors of the present invention using pooled human plasma with addition of thromboplastin or activated partial thromboplastin to initiate clotting. The assays employed kits from Biopool International (Ventura, Calif., USA) or from Pacific Haemostasis (Middletown, Va., USA) using the procedures supplied by the manufacturer. Briefly, the stock solution of an inhibitor (with the concentration determined using UV-based OD determination, see Gill 1989) is diluted in a buffer of 20 mM HEPES and 150 mM NaCl at pH 7.4 (HBS) to a final volume of 50 μL, to which is added the reconstituted normal plasma (Product #CMS-176172 from Fisher Scientific) in an equal volume. This solution mixture is equilibrated at 37° C. for 2 minutes before 50 μL of the APTT-10XL solution (CMS-022927) is introduced forcibly to ensure proper mixing. This new mixture was incubated at 37° C. for another 5 minutes, which is followed by the addition of 50 μL of 0.02 M […] (Fisher Scientific CMS-022925) pre-warmed at 37° C. For the prothrombin time (PT) assay, an inhibitor is diluted in HBS to a final volume of 25 μL, to which is added the reconstituted control plasma (Fisher Scientific CMS-176172) in an equal volume. This solution mixture is equilibrated at 37° C. for 5 minutes before addition of 100 μL of the thromboplastin solution (CMS-176099) pre-warmed at 37° C. For APTT assays, inhibitory activities of the peptides are expressed as concentrations needed to achieve 50% of the maximum delay in clotting time (MCT50) as compared to the absence of thrombin inhibitors (Maraganore 1989). For PT assays, inhibitory activities are measured as the concentrations of the peptides that prolong the clotting time by 50% (IC50) of that of the normal control plasma (Maraganore 1990). PT and APTT assays were also carried out using slightly modified experimental procedures. Thus, 50 μL of a control plasma (Pacific Hemostasis) solution was added to 100 μL HBS (20 mM HEPES and 150 mM NaCl at pH 7.4) containing varied concentrations of the peptides of this invention. After incubation at 37° C. for 5 min, the mixture was added to 50 μL of the thromboplastin or activated partial thromboplastin reagent. Clotting of the plasma was monitored by change in absorbance at 420 nm using a SpectraMax™ plate reader.

Experiment [6] has as its system pooled human plasma. The experiment can be described thus: Activated partial thromboplastin time (APTT) clotting assay. The conditions noted are these: 37° C.; concentration for 50% of maximum delay in clotting time; read-out: MTC50 (APTT). It is filed as biochemical. On the procedure: as §3
The test system of experiment [7] is FeCl3-induced venous thrombosis (vena cava). The experiment can be described thus: FeCl3-induced venous model of thrombosis in rats (thrombus weight). It is filed as in vivo. The conditions noted are these: rat, single-bolus injection via tail vein. On the procedure:
as §1
The FeCl3-induced venous model of thrombosis in rats was generated as described by Wang and Xu (Wang 2005) with some modifications (Couture 2011). Briefly, rats were anesthetized with a 2.5% isoflurane/oxygen mixture and placed on a heat source (35-37° C.). The vena cava was then exposed via a midline incision and the region between the renal and iliolumbar veins was isolated. […]
Protein content of the thrombus was also measured according to protocol by Wang (Wang 2005). […] Contents of amino acids and small peptides were measured at OD280 with digestion buffer used as a blank.
as §2

Experimental findings from patent publication US10155802B2, “Locally-active anticoagulants and anti-inflammatory agents” (priority 2011, dated 2018) are described below.

As usually defined, the Ki is a measure of affinity in units of concentration, obtained from inhibition or displacement. The term IC50 denotes the point on the concentration scale where inhibition reaches its midpoint. Higher therefore signals weaker potency in that assay.

SMILES strings stand for the structures. Where “and” joins values, the source holds several entries; their conditions need not be identical. Equal values may be shown once. Entries after “also recorded” stand apart in the source; their conditions may differ.

Regarding `CC[C@H](C)[C@H](NC(=O)[C@H](CCCNC(=N)N)NC(=O)[C@@H]1CCCN1C(=O)[C@H](N)Cc1ccccc1)C(=O)N[C@@H](CCCNC(=N)N)C(=O)N[C@@H](Cc1ccccc1)C(=O)N[C@H](C(=O)N[C@@H](CC(=O)O)C(=O)NCC(=O)N[C@@H](CCC(=O)O)C(=O)N[C@@H](Cc1c[nH]c2ccccc12)C(=O)N[C@H](C(=O)N[C@@H](Cc1c[nH]c2ccccc12)C(=O)N[C@@H](CC(=O)O)C(=O)N[C@@H](CC(=O)O)C(=O)N[C@@H](C)C(=O)N[C@H](C(=O)N[C@@H](CCCCN)C(=O)N[C@H](C(=O)N[C@@H](Cc1c[nH]c2ccccc12)C(=O)N[C@H](C(=O)N[C@@H](Cc1c[nH]c2ccccc12)C(=O)N[C@H](C(=O)N[C@@H](CCC(=O)O)C(=O)NCC(=O)N[C@@H](CC(=O)O)C(=O)N[C@@H](Cc1ccccc1)C(=O)N[C@@H](CCC(=O)O)C(=O)N[C@@H](CCC(=O)O)C(=O)N[C@H](C(=O)N1CCC[C@H]1C(=O)N[C@@H](CCC(=O)O)C(=O)N[C@@H](CCC(=O)O)C(=O)N[C@@H](Cc1ccc(O)cc1)C(=O)N[C@@H](CC(C)C)C(=O)O)[C@@H](C)CC)[C@@H](C)O)[C@@H](C)O)[C@@H](C)O)[C@@H](C)O)[C@@H](C)O)[C@@H](C)O` [BRI-T218], the “anti-thrombotic efficacy in arterial model” value in experiment [1] is reported as “appears to restore the anti-thrombotic activity; also recorded: increases the efficacy”. On thrombin [2], the cleavage by thrombin result is recorded as “completely converted to the cleavage products within two hours; also recorded: almost completion of the cleavage reaction after 2 hours of incubation”. For the same molecule, in experiment [3], the “clotting time (aPTT), systemic anticoagulant effect” value is on record as “only a slight prolongation of the clotting time (aPTT)”. Besides, the inhibition constant Ki at Human α-thrombin was ~14 nM and 14 nM.

For the molecule `CC[C@H](C)[C@H](N)C(=O)N[C@@H](CCCNC(=N)N)C(=O)N[C@@H](Cc1ccccc1)C(=O)N[C@H](C(=O)N[C@@H](CC(=O)O)C(=O)NCC(=O)N[C@@H](CCC(=O)O)C(=O)N[C@@H](Cc1c[nH]c2ccccc12)C(=O)N[C@H](C(=O)N[C@@H](Cc1ccc(O)cc1)C(=O)N[C@@H](CC(=O)O)C(=O)N[C@@H](CC(=O)O)C(=O)N[C@@H](C)C(=O)N[C@H](C(=O)N[C@@H](CCCCN)C(=O)N[C@H](C(=O)N[C@@H](Cc1ccccc1)C(=O)N[C@H](C(=O)N[C@@H](Cc1c[nH]c2ccccc12)C(=O)N[C@H](C(=O)N[C@@H](CCC(=O)O)C(=O)NCC(=O)N[C@@H](CC(=O)O)C(=O)N[C@@H](Cc1ccccc1)C(=O)N[C@@H](CCC(=O)O)C(=O)N[C@@H](CCC(=O)O)C(=O)N[C@H](C(=O)N1CCC[C@H]1C(=O)N[C@@H](CCC(=O)O)C(=O)N[C@@H](CCC(=O)O)C(=O)N[C@@H](Cc1ccc(O)cc1)C(=O)N[C@@H](CC(C)C)C(=O)N[C@@H](CCC(N)=O)C(=O)O)[C@@H](C)CC)[C@@H](C)O)[C@@H](C)O)[C@@H](C)O)[C@@H](C)O)[C@@H](C)O)[C@@H](C)O` [MH2-wZIP5], the IC50 is 107 nM at thrombin [4] and < 300 nM in the experiment with pooled human plasma [5] (37° C., concentration that prolongs clotting time by 50%). In addition, the “clotting time (aPTT), systemic anticoagulant effect” value in experiment [3] is reported as “only a slight prolongation of the clotting time (aPTT)”. Besides, the “concentrations required in PT-APTT curves relative to MH2-GS” value with pooled human plasma [5] is listed as “about 2.5 times”. For the same molecule, the EC50 in the experiment on pooled human plasma [6] was found to be 2000 nM. Further, in experiment [7], the “reduction of thrombus weight, venous model” value is given as “comparable to MH2-wZIP4”.
